Reference: patent US10564164B2, “Fluorescent probe, singlet oxygen detection agent, and singlet oxygen detection method” (Osaka University, priority 2014, dated 2020)

What was measured:
[1] = system: HeLa cells; experiment: Selectivity of photosensitizer: intracellular singlet oxygen detection with Si-DMA; assay type: cell-based; settings: 25 nM Si-DMA, 640 nm, 0.6 W/cm2
Description: Subsequently, a quick protocol provided by Molecular Probe® for introducing CellROX Green was followed. Using diluted Si-DMA and Si-Me, incubation was performed for 30 minutes to two hours by an experiment. To introduce a photosensitizer, 150 μg/mL of 5-aminolevulinic acid (5-ALA) or 10 LM TMPyP4 were incubated for four hours and 24 hours, respectively. As a result, as previously reported, the conversion of 5-ALA into protoporphyrin IX (PpIX) in the mitochondria was confirmed by the fluorescence luminescence of PpIX.
A KillerRed vector was expressed in accordance with a general Lipofectamine® 2000 (Invitrogen) protocol. More specifically, 2×10^5 Hela cells were subcultured in a 35-mm glass bottom dish. The cells reached about 50% confluent in the next day.
Subsequently, a mixed solution of Lipofectamine reagent and DNA vector was obtained by mixing 6 μL Lipofectamine® 2000 with 7 μL pKillerRed-dMitovector ([…], Evrogen, catalog No. FP964) in an Opti-MEM solution (Gibco). Thereafter, the resulting solution was incubated for 20 minutes at room temperature. 300 μL of the mixed solution was added to a growth medium, and incubated for 24 hours. The expression of KillerRed was confirmed by monitoring KillerRed fluorescence using a wide-view microscope. […]
Further, on the night before the treatment, 0.2×10^6 HeLa cells were seeded on a 35-mm dish, and pKillerRed-dMito vector (Evrogen) was introduced using Lipofectaimine®2000 (Invitrogen®), followed by 24-hour incubation as described above, thereby preparing HeLa cells containing […]. […] Light irradiation was performed for 30 seconds simultaneously at 0.5 W/cm^2 and 0.6 W/cm^2 using a 640-/532-nm laser (Coherent) and a wide-view fluorescence microscope system mounted in an IX81 inverted microscope (Olympus Corporation). […]
Further, in this Experiment Example, 60-second light irradiation was performed using three kinds of photosensitizers, and an average number of pseudo colors appeared in the photo and an increase thereof were measured. […]

[2] = Fluorescence/absorption spectrum of probe with TMPyP4 under light irradiation (photosensitised singlet oxygen); assay type: physicochemical; settings: for increase of fluorescence intensity: 50 μM Si-DMA, 5 μM TMPyP4, 50-minute irradiation 510-550 nm, 0.07 W/cm2
Description: (§1) Further, in the in vitro measurement, unless otherwise specified, all bulk spectrum measurements were performed in a phosphate buffered saline (PBS) having a pH of 7.5 without Ca and Mg or spectral grade methanol. The absorption spectrum and fluorescence spectrum in the ground state were measured using the Shimadzu UV-3100 and Horiba FluoroMax-4, respectively. The bulk irradiation was performed using a xenon light source (LAX-C100, Asahi Spectra Co., Ltd.) and a wavelength filter (BA510-550, Olympus Corporation).
The concentration of Si-DMA was 50 μM, and the concentration of TMPyP4 was 5 μM. The light irradiation was performed using a 510- to 550-nm wavelength ray at an intensity of 0.07 W/cm^2 under magnetic stirring so as to generate singlet oxygen.
In FIGS. 1a) and 1c), the black arrows denote changes in absorption by peroxidation (solid line) of the anthracene structure and disaggregation of hydrogen aggregate (broken line).
Subsequently, Si-DMA was reacted with singlet oxygen, thereby forming Si-DMEP; as a result, photoinduced electron transfer was inhibited, thereby increasing the fluorescence intensity (Φfl=0.17). In methanol, the fluorescence intensity increased about 18 times (in methanol), and about 22 times (in PBS) (FIGS. 1b) and 1d); red), and a loss of the anthracene structure was observed (FIG. 1a); black arrow).

[3] = Fluorescence quantum yield in various solvents in the absence of singlet oxygen; assay type: physicochemical
Description: as §1
As is clear from the above, fluorescence was hardly observed in the absence of singlet oxygen, (Φfl=0.01; in methanol), and the excitation of silicon-rhodamine was cancelled due to photoinduced electron transfer caused by the anthracene structure. The fluorescence in the absence of singlet oxygen also depended on the type of solvent. The fluorescence intensity decreases when a polar solvent is used, thereby inhibiting erroneous signals.

With `Cc1c2ccccc2c(C)c2cc(C3=C4C=CC(=[N+](C)C)C=C4[Si](C)(C)c4cc(N(C)C)ccc43)ccc12` [Si-DMA] the “time to increase in fluorescence in the vicinity of the perinuclear region” value ([1]; HeLa cells with PpIX (150 μg/mL 5-aminolevulinic acid, 4 h)) was at most 10 s, the color rendering ([1]; HeLa cells with PpIX as photosensitizer) was “clear color rendering was accomplished” and the “stability (color fading) under light irradiation” value ([2]; after 900 seconds) was “color fading was not observed”. The “increase of fluorescence intensity” value ([2]; in PBS) was “about 22 times”, the “increase of fluorescence intensity” value ([2]; in methanol) was “about 18 times” and the “change of fluorescence on light irradiation” value ([2]; in the absence of TMPyP4) was “did not increase”. For the same molecule, the “Φfl (fluorescence quantum yield)” value ([3]; in DMSO) was 0.008, the “Φfl (fluorescence quantum yield)” value ([3]; in acetone) was 0.010 and the “Φfl (fluorescence quantum yield)” value ([3]; in benzene) was 0.034. For the same molecule, the “Φfl (fluorescence quantum yield)” value ([3]; in chloroform) was 0.010, the “Φfl (fluorescence quantum yield)” value ([3]; in methanol) was 0.01 and the “Φfl (fluorescence quantum yield)” value ([3]; in toluene) was 0.030.
